From the supplement of paper PMC10307832

How the values were obtained:
Test in all cases: relative viability (nuclei count vs DMSO), 5 days (fraction); higher = more cells survive
TGX 221 + Foretinib = compound: CC1=CN2C(=O)C=C(N=C2C(=C1)C(C)NC3=CC=CC=C3)N4CCOCC4 [TGX 221] + COc1cc2c(Oc3ccc(NC(=O)C4(C(=O)Nc5ccc(F)cc5)CC4)cc3F)ccnc2cc1OCCCN1CCOCC1 [Foretinib] (partner 0.25 µM)
How it was run: (§1)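 Lung cancer cell lines in 1536-well plates got either a single drug or a fixed anchor-drug dose together with five library-drug doses (not always all listed) in √10 steps, by pin tool, on the day after seeding. Nuclei were counted after 5 days, and relative viability is the treated-to-vehicle ratio of nuclei counts. Values are medians of duplicate plates.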

[1] = compound: O=C(CCCCCCNC(=O)c1cnc(N(c2ccccc2)c2ccccc2)nc1)NO [Ricolinostat] + CCNC(=O)c1noc(-c2cc(C(C)C)c(O)cc2O)c1-c1ccc(CN2CCOCC2)cc1 [Luminespib] (partner 0.01 µM)
How it was run: as §1

[2] = compound: C1=CC=C(C(=C1)C2=CC=C(C=C2)C3=CSC4=C3C(=C(C(=O)N4)C#N)O)O + COc1cc2c(Oc3ccc(NC(=O)C4(C(=O)Nc5ccc(F)cc5)CC4)cc3F)ccnc2cc1OCCCN1CCOCC1 [Foretinib] (partner 0.25 µM)
How it was run: as §1

[3] = compound: O=C(CCCCCCNC(=O)c1cnc(N(c2ccccc2)c2ccccc2)nc1)NO [Ricolinostat] + CC(C)C[C@H](NC(=O)[C@H](Cc1ccccc1)NC(=O)c1cnccn1)B(O)O [Bortezomib] (partner 0.002 µM)
How it was run: as §1

| Cell Line | relative viability (TGX 221 + Foretinib; first compound 0.08 µM) | relative viability (TGX 221 + Foretinib; first compound 0.253 µM) | relative viability (TGX 221 + Foretinib; first compound 0.8 µM) | relative viability (TGX 221 + Foretinib; first compound 2.53 µM) | relative viability (TGX 221 + Foretinib; first compound 8 µM) | relative viability ([1]; first compound 0.08 µM) | relative viability ([1]; first compound 0.253 µM) | relative viability ([1]; first compound 0.8 µM) | relative viability ([1]; first compound 2.53 µM) | relative viability ([2]; first compound 0.08 µM) | relative viability ([2]; first compound 0.253 µM) | relative viability ([2]; first compound 0.8 µM) | relative viability ([2]; first compound 2.53 µM) | relative viability ([2]; first compound 8 µM) | relative viability ([3]; first compound 0.08 µM) | relative viability ([3]; first compound 0.253 µM) | relative viability ([3]; first compound 0.8 µM) | relative viability ([3]; first compound 2.53 µM) |
| --- | --- | --- | --- | --- | --- | --- | --- | --- | --- | --- | --- | --- | --- | --- | --- | --- | --- | --- |
| NCI-H1651 | 0.768 | 0.611 | 0.729 | 0.586 | 0.609 | 0.712 | 0.891 | 0.852 | 0.914 | 0.848 | 0.774 | 0.924 | 0.76 | 0.714 | 0.941 | 0.865 | 0.918 | 0.984 |
| CAL-12T | 0.994 | 1.12 | 1.27 | 1.15 | 1.09 | 0.497 | 0.378 | 0.542 | 0.303 | 0.951 | 1.13 | 1.2 | 1.19 | 1.01 | 0.814 | 0.833 | 0.816 | 0.937 |
| NCI-H23 | 0.84 | 0.861 | 1.03 | 0.87 | 0.65 | – | 0.203 | 0.214 | 0.169 | 0.906 | 1.04 | 1.19 | 1.05 | 0.896 | 0.793 | 1.14 | 1.16 | 0.993 |
| NCI-H2228 | 0.738 | 0.853 | 0.787 | 0.754 | 0.72 | 0.157 | 0.115 | 0.167 | 0.15 | 0.764 | 0.871 | 0.96 | 0.847 | 0.588 | 0.789 | 0.807 | 0.907 | 0.594 |
| NCI-H661 | 1.03 | 0.987 | 1.02 | 1.09 | 0.82 | 0.743 | 0.886 | 0.881 | 0.685 | 1.3 | 1.06 | 0.898 | 1.02 | 0.99 | – | 0.743 | 0.997 | 1.19 |
